Here are results for ten compounds from ChEMBL document CHEMBL1828570, “Modeling the molecular basis for α4β1 integrin antagonism” (Bioorg Med Chem, 2011).

The structures appear in SMILES notation.

For this assay, the target named is Integrin alpha-4/beta-1 (Homo sapiens, UniProt P05556+P13612). Nature of the assay: Antagonist activity at alpha4beta1 integrin. The assay is classed as functional.
Integrin alpha-4/beta-1, sequence (P05556 whole entry): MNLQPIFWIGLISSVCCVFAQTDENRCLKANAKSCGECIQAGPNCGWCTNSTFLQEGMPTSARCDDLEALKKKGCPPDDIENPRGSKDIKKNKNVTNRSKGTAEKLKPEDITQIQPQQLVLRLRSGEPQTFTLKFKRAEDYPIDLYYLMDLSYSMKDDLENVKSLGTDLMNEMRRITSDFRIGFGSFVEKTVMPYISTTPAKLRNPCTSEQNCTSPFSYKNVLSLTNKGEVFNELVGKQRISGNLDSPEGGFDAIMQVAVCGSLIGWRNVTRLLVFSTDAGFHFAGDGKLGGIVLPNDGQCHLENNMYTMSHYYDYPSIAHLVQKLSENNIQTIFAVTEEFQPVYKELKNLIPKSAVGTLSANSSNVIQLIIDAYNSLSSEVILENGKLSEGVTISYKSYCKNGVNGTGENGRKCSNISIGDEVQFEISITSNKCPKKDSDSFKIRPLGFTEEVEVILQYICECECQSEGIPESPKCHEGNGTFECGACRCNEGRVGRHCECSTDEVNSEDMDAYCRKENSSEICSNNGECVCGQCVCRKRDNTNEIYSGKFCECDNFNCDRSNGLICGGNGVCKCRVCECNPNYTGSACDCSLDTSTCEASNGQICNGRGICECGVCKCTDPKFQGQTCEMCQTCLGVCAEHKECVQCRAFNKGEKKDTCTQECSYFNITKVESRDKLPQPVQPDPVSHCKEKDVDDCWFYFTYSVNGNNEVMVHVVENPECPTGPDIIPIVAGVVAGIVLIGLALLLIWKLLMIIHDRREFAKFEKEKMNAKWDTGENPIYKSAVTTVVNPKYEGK
Integrin alpha-4/beta-1, sequence (P13612 whole entry): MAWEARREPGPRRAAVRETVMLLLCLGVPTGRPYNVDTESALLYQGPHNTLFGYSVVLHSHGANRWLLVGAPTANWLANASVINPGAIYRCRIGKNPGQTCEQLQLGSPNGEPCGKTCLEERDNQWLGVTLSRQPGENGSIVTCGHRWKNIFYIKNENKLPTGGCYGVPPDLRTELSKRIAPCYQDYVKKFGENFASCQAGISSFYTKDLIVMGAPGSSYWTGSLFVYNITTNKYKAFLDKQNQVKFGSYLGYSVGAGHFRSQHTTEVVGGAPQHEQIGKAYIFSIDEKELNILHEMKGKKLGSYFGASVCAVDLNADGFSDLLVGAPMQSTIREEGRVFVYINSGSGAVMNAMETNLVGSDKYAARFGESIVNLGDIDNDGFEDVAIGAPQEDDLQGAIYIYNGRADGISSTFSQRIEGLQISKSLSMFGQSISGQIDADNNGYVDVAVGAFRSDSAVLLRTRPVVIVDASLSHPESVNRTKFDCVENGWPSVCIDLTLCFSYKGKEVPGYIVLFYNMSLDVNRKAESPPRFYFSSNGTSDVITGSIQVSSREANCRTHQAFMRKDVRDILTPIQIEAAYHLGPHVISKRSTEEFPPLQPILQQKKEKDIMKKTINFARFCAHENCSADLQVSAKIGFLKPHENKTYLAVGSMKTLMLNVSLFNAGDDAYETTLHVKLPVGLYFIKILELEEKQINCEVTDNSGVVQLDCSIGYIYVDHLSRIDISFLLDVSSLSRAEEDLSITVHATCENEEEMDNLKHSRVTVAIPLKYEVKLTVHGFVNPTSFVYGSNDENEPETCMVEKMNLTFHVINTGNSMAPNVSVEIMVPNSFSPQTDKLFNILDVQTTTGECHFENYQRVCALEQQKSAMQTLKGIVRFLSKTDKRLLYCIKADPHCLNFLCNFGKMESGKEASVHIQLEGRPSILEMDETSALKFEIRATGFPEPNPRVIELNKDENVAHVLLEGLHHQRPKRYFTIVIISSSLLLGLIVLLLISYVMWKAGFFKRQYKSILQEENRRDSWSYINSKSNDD
As for `CC(C)C(=O)Oc1cccc(OC(=O)C(C)C)c1-c1ccc(C[C@@H](NC(=O)[C@@]2(C)CCCN2S(=O)(=O)c2cc(Cl)cc(Cl)c2)C(=O)O)cc1`, the 50% inhibitory concentration (IC50) was 4.5 nM. Next, `O=C(O)[C@@H](CSSCCNC(=O)C12CC3CC(CC(C3)C1)C2)NC12CC3CC(CC(C3)C1)C2`: 4100 nM; `CS(=O)(=O)CCCCC1(C(=O)N[C@H](Cc2ccc(NC(=O)c3c(Cl)cccc3Cl)cc2)C(=O)O)CCC1`: 6 nM; `O=C(O)CC[C@H](NCS(=O)(=O)c1ccccc1)C(=O)N[C@@H](Cc1ccc(OCc2c(Cl)cccc2Cl)cc1)C(=O)O`: 2 nM. Next, `O=C(Nc1ccc(C[C@H](NC(=O)[C@@H]2C3CCC(CC3)N2S(=O)(=O)c2ccccc2Cl)C(=O)O)cc1)c1cc(Cl)nc(Cl)c1`: 105 nM; `CCCNc1c(N[C@@H](Cc2ccc(OCc3c(Cl)cccc3Cl)cc2)C(=O)O)c(=O)c1=O`: 67 nM; `COc1cccc(OC)c1-c1ccc(C[C@@H](NC(=O)[C@@]2(C)CCN2S(=O)(=O)c2cc(Cl)cc(Cl)c2)C(=O)O)cc1`: 0.07 nM. Next, `COCCCC[C@@]1(C(=O)N[C@H](Cc2ccc(-c3c(OC)cccc3OC)cc2)C(=O)O)CCCO1`: 1.27 nM; `COc1ccccc1-c1ccc(C[C@H](NC(=O)Cc2ccccc2Cl)C(=O)O)cc1`: 36.8 nM.

In turn, `COc1cccc(OC)c1-c1ccc(C[C@H](NC[C@@H]2CCCN2S(=O)(=O)c2cc(Cl)cc(Cl)c2)C(=O)O)cc1` showed an IC50 of 140 nM.
